Here are results for 22 molecules from patent publication US20240368150A1 (Hoffmann-La Roche Inc., priority 2021, published 2024).

Experiment [1] relates to primary human T-cells. The experiment can be described thus: Proliferation assay after 5 days (CellTiter-Glo, CD3 stimulation; PBS counter screen). Format: cell-based. Conditions: Homo sapiens, T-cell, 120 h, CD3 stimulation; for Emax: 5 days, normalized to reference compound A1 as stimulator control = 100%, DMSO neutral control, read-out: Emax proliferation (% activation); for EC50: primary human T-cells, CellTiter-Glo after 5 days, EC50 of fitted sigmoidal curve, read-out: Tcell Proliferation CD3 EC50. As for the experimental part: Compounds are then added (see next section) to medium only plates.
Cells are assessed for proliferation 5 days later by measuring […] using CellTiterGlo (Promega).
After 5 days, for detection of ATP which is directly proportional to the number of cells present per well, the CellTiter-Glo® 2.0 Reagent is used. After visual control for toxicity or precipitations of the tested compounds, the plates are equilibrated to room temperature for 45 minutes. CellTiter-Glo® 2.0 Reagent is equilibrated to room temperature as well. After equilibration, an equal amount of CellTiter-Glo reagent is added to the cells (80 μl/well) with an electronic multichannel pipette. Plates are placed on a rocking platform for 15 minutes at room temperature. After incubation, the bottom of the plates is sealed with backing tape. Luminescence is measured with PHERAstar FSX (interval time 0.5 sec, gain 3000, focal height 15 mm) and exported as CSV file for analysis in Genedata screener.
Compounds which activate unstimulated cells (see IL2 measurements) or compounds which negatively affected viability were flagged.

The test system of experiment [2] is primary human T-cells.

Like-named read-outs stand apart in the source and are kept apart here. Where only a bound is given, the exact number is not on record here.

On to `N[C@H]1CS(=O)(=O)c2ccc(-c3nnc(CC(F)(F)F)o3)c(F)c2N(Cc2ccc(Cl)cc2)C1=O` [Example 217, (3R)-3-amino-5-[(4-chlorophenyl)methyl]-6-fluoro-1,1-dioxo-7-[5-(2,2,2-trifluoroethyl)-1,3,4-oxadiazol-2-yl]-2,3-dihydro-1λ^6,5-benzothiazepin-4-one], for which, in the experiment with primary human T-cells [1], the Emax turned out to be 221% and the EC50 amounted to 2110 nM. In the experiment with primary human T-cells [2], this molecule registered an EC50 of 780 nM.

Turning to `CS(=O)(=O)N1CC2CC(c3nnc(-c4cc5c(cc4F)S(=O)(=O)C[C@H](N)C(=O)N5Cc4ccc(Cl)cc4)o3)(C2)C1` [Example 174, (3R)-3-amino-5-[(4-chlorophenyl)methyl]-8-fluoro-7-[5-(3-methylsulfonyl-3-azabicyclo[3.1.1]heptan-1-yl)-1,3,4-oxadiazol-2-yl]-1,1-dioxo-2,3-dihydro-1λ^6,5-benzothiazepin-4-one], in the experiment with primary human T-cells [1], the Emax is 93% and the EC50 came out at 4460 nM. Also, the EC50 in the experiment on primary human T-cells [2] amounted to 2190 nM.

As for `CC(C)(C)n1ccc(-c2cc3c(cc2F)S(=O)(=O)C[C@H](N)C(=O)N3Cc2ccc(Cl)cc2)n1` [Example 287, (3R)-3-amino-7-(1-tert-butylpyrazol-3-yl)-5-[(4-chlorophenyl)methyl]-8-fluoro-1,1-dioxo-2,3-dihydro-1λ^6,5-benzothiazepin-4-one], the Emax with primary human T-cells [1] was 66%. The EC50 in the experiment with primary human T-cells [1] is 2210 nM; in the experiment on primary human T-cells [2], 19300 nM.

Consider `CS(=O)(=O)N1CCC2CC2(c2nnc(-c3cc4c(cc3F)S(=O)(=O)C[C@H](N)C(=O)N4Cc3ccc(Cl)cc3)o2)C1` (stereo partly drawn) [Example 179, (3R)-3-amino-5-[(4-chlorophenyl)methyl]-8-fluoro-7-[5-(3-methylsulfonyl-3-azabicyclo[4.1.0]heptan-1-yl)-1,3,4-oxadiazol-2-yl]-1,1-dioxo-2,3-dihydro-1λ^6,5-benzothiazepin-4-one], for which, in the experiment on primary human T-cells [1], the Emax worked out at 80% and the EC50 worked out at 1580 nM. Besides, the EC50 with primary human T-cells [2] came to 335 nM.

`CC(C)(C)c1cn(-c2cc3c(cc2F)S(=O)(=O)C[C@H](N)C(=O)N3Cc2ccc(Cl)cc2)nn1` [Example 5, (3R)-3-amino-7-(4-tert-butyltriazol-1-yl)-5-[(4-chlorophenyl)methyl]-8-fluoro-1,1-dioxo-2,3-dihydro-1λ^6,5-benzothiazepin-4-one]: the Emax in the experiment on primary human T-cells [1] was 154%. For the same molecule, the results for the EC50 in the experiment with primary human T-cells [1] and with primary human T-cells [2] were 2140 nM and 991 nM, respectively.

For the molecule `N[C@H]1CS(=O)(=O)c2cc(F)c(-c3nnc(NC45CC(Cl)(C4)C5)o3)cc2N(Cc2ccc(Cl)cc2)C1=O` [Example 500, (3R)-3-amino-7-[5-[(3-chloro-1-bicyclo[1.1.1]pentanyl)amino]-1,3,4-oxadiazol-2-yl]-5-[(4-chlorophenyl)methyl]-8-fluoro-1,1-dioxo-2,3-dihydro-1λ^6.5-benzothiazepin-4-one], in the experiment on primary human T-cells [1], the Emax is 97% and the EC50 worked out at 1230 nM. The molecule also displayed an EC50 in the experiment with primary human T-cells [2] of 911 nM.

Turning to `N[C@H]1CS(=O)(=O)c2cc(F)c(-c3nnc(C4CC5(CCOC5)C4)o3)cc2N(Cc2ccc(Cl)cc2)C1=O` (stereo partly drawn) [Example 110, (3R)-3-amino-5-[(4-chlorophenyl)methyl]-8-fluoro-7-[5-(6-oxaspiro[3.4]octan-2-yl)-1,3,4-oxadiazol-2-yl]-1,1-dioxo-2,3-dihydro-1λ^6,5-benzothiazepin-4-one], in the experiment with primary human T-cells [1], the Emax amounted to 131%. The EC50 was 125 nM with primary human T-cells [1] and 232 nM in the experiment with primary human T-cells [2].

Consider `CC(C)(NCC(F)(F)F)c1nc(-c2cc3c(cc2F)S(=O)(=O)C[C@H](N)C(=O)N3Cc2ccc(Cl)cc2)no1` [Example 298, (3R)-3-amino-5-[(4-chlorophenyl)methyl]-8-fluoro-7-[5-[1-methyl-1-(2,2,2-trifluoroethylamino)ethyl]-1,2,4-oxadiazol-3-yl]-1,1-dioxo-2,3-dihydro-1λ^6,5-benzothiazepin-4-one], for which the Emax with primary human T-cells [1] was determined as 162%.

Turning to `CCc1noc(-c2ccc3c(c2)N(Cc2ccc(Cl)cc2)C(=O)[C@@H](N)CS3(=O)=O)n1` [Example 51, (3R)-3-amino-5-[(4-chlorophenyl)methyl]-7-(3-ethyl-1,2,4-oxadiazol-5-yl)-1,1-dioxo-2,3-dihydro-1λ^6,5-benzothiazepin-4-one], in the experiment on primary human T-cells [1], the Emax came to 94% and the EC50 was 2690 nM.

On to `CC(C)(C)c1ncn(-c2cc3c(cc2F)S(=O)(=O)C[C@H](N)C(=O)N3Cc2ccc(Cl)cc2)n1` [Example 526, (3R)-3-amino-7-(3-tert-butyl-1,2,4-triazol-1-yl)-5-[(4-chlorophenyl)methyl]-8-fluoro-1,1-dioxo-2,3-dihydro-1λ^6,5-benzothiazepin-4-one], for which, in the experiment with primary human T-cells [1], the Emax amounted to 125%.

In the case of `N[C@H]1CSc2cc(F)c(-n3cc(Cc4ccc(Cl)cc4)nn3)cc2N(Cc2ccc(Cl)cc2)C1=O` [Example 2, (3R)-3-amino-5-[(4-chlorophenyl)methyl]-7-[4-[(4-chlorophenyl)methyl]triazol-1-yl]-8-fluoro-2,3-dihydro-1,5-benzothiazepin-4-one], in the experiment with primary human T-cells [1], the Emax is 34% and the EC50 was greater than 20000 nM.

In the case of `N[C@H]1CS(=O)(=O)c2cc(F)c(-c3nc(C4CC4)no3)cc2N(Cc2ccc(Cl)cc2)C1=O` [Example 40, (3R)-3-amino-5-[(4-chlorophenyl)methyl]-7-(3-cyclopropyl-1,2,4-oxadiazol-5-yl)-8-fluoro-1,1-dioxo-2,3-dihydro-1λ^6,5-benzothiazepin-4-one], in the experiment on primary human T-cells [1], the Emax was 34% and the EC50 is greater than 20000 nM.

Consider `CCc1nc(-c2cc3c(cc2F)S(=O)(=O)C[C@H](N)C(=O)N3Cc2ccc(Cl)cc2)no1` [Example 290, (3R)-3-amino-5-[(4-chlorophenyl)methyl]-7-(5-ethyl-1,2,4-oxadiazol-3-yl)-8-fluoro-1,1-dioxo-2,3-dihydro-1λ^6,5-benzothiazepin-4-one], for which, in the experiment with primary human T-cells [1], the Emax worked out at 139% and the EC50 stood at 744 nM.

Regarding `CCn1nnc(-c2cc3c(cc2F)S(=O)(=O)C[C@H](N)C(=O)N3Cc2ccc(Cl)cc2)n1` [Example 7, (3R)-3-amino-5-[(4-chlorophenyl)methyl]-7-(2-ethyltetrazol-5-yl)-8-fluoro-1,1-dioxo-2,3-dihydro-1λ^6,5-benzothiazepin-4-one], in the experiment with primary human T-cells [1], the Emax was 264% and the EC50 is 2750 nM.

`N[C@H]1CS(=O)(=O)c2cc(F)c(-c3nc(COCc4ccccc4)no3)cc2N(Cc2ccc(Cl)cc2)C1=O` [Example 45, (3R)-3-Amino-7-[3-(benzyloxymethyl)-1,2,4-oxadiazol-5-yl]-5-[(4-chlorophenyl)methyl]-8-fluoro-1,1-dioxo-2,3-dihydro-1λ^6,5-benzothiazepin-4-one]: in the experiment with primary human T-cells [1], the Emax is 80% and the EC50 stood at 1970 nM.

Turning to `N[C@H]1CS(=O)(=O)c2cc(F)c(-c3nnc(CCCC(F)(F)F)o3)cc2N(Cc2ccc(Cl)cc2)C1=O` [Example 79, (3R)-3-Amino-5-[(4-chlorophenyl)methyl]-8-fluoro-1,1-dioxo-7-[5-(4,4,4-trifluorobutyl)-1,3,4-oxadiazol-2-yl]-2,3-dihydro-1λ^6,5-benzothiazepin-4-one], in the experiment with primary human T-cells [1], the Emax worked out at 154% and the EC50 came out at 173 nM.

As for `N[C@H]1CS(=O)(=O)c2cc(F)c(-c3nc(Cc4ccc(Cl)cc4)no3)cc2N(Cc2ccc(Cl)cc2)C1=O` [Example 44, (3R)-3-Amino-5-[(4-chlorophenyl)methyl]-7-[3-[(4-chlorophenyl)methyl]-1,2,4-oxadiazol-5-yl]-8-fluoro-1,1-dioxo-2,3-dihydro-1λ^6,5-benzothiazepin-4-one], in the experiment on primary human T-cells [1], the Emax turned out to be 122% and the EC50 came to 702 nM.

On to `COC(=O)N1CCC(C)(c2nc(-c3cc4c(cc3F)S(=O)(=O)C[C@H](N)C(=O)N4Cc3ccc(Cl)cc3)no2)CC1` [Example 307, methyl 4-[3-[(3R)-3-amino-5-[(4-chlorophenyl)methyl]-8-fluoro-1,1,4-trioxo-2,3-dihydro-1λ^6,5-benzothiazepin-7-yl]-1,2,4-oxadiazol-5-yl]-4-methyl-piperidine-1-carboxylate], for which the Emax in the experiment on primary human T-cells [1] is 143%.

As to `CCc1cn(-c2cc3c(cc2F)SC[C@H](N)C(=O)N3Cc2ccc(Cl)cc2)nn1` [Example 1, (3R)-3-amino-5-[(4-chlorophenyl)methyl]-7-(4-ethyltriazol-1-yl)-8-fluoro-2,3-dihydro-1,5-benzothiazepin-4-one], in the experiment with primary human T-cells [1], the Emax turned out to be 33% and the EC50 was greater than 20000 nM.

Consider `N[C@H]1CS(=O)(=O)c2cc(F)c(-n3cc(Cc4ccc(Cl)cc4)nn3)cc2N(Cc2ccc(Cl)cc2)C1=O` [Example 4, (3R)-3-amino-5-[(4-chlorophenyl)methyl]-7-[4-[(4-chlorophenyl)methyl]triazol-1-yl]-8-fluoro-1,1-dioxo-2,3-dihydro-1λ^6,5-benzothiazepin-4-one], for which, in the experiment with primary human T-cells [1], the Emax was 168% and the EC50 was 1050 nM.

Take `NCc1noc(-c2cc3c(cc2F)S(=O)(=O)C[C@H](N)C(=O)N3Cc2ccc(Cl)cc2)n1` [Example 50, (3R)-3-amino-7--[3-(aminomethyl)-1,2,4-oxadiazol-5-yl]-5-[(4-chlorophenyl)methyl]-8-fluoro-1,1-dioxo-2,3-dihydro-1λ^6,5-benzothiazepin-4-one]: in the experiment with primary human T-cells [1], the Emax amounted to 40% and the EC50 was greater than 20000 nM.

`CCCc1noc(-c2cc3c(cc2F)S(=O)(=O)C[C@H](N)C(=O)N3Cc2ccc(Cl)cc2)n1` [Example 42, (3R)-3-Amino-5-[(4-chlorophenyl)methyl]-8-fluoro-1,1-dioxo-7-(3-propyl-1,2,4-oxadiazol-5-yl)-2,3-dihydro-1λ^6,5-benzothiazepin-4-one]: in the experiment with primary human T-cells [1], the Emax amounted to 80% and the EC50 amounted to 1310 nM.
